pIC50: −log10 of the molar value. Starred links: 1 amine or outer side, 2 acyl side, 3 side chain; linkers in the order of their positions; H or OH if unused. Positions of bridges follow the written chain, without caps; N, C: chain ends. Non-standard residues stand in square brackets, D forms with d. Residues, ends and D or L forms follow the SMILES beside them. *: point of attachment. hPhe(3-Cl-4-CF3) = N[C@@H](CCc1ccc(C(F)(F)F)c(Cl)c1)C(=O)O; 3Oxa8azabicyclo(3.2.1)octane = C1CC2COCC1N2*; NMeAbu(4,4,4-F3) = CN[C@@H](CC(F)(F)F)C(=O)O; NMePhe(4-Cl) = CN[C@@H](Cc1ccc(Cl)cc1)C(=O)O; X33 = Cc1ccc(CC[C@H](N[*:1])C(=O)[*:2])cc1; NMedβ3hAla = C[C@H](CC(=O)[*:2])N(C)[*:1]; NMeAla(cPent) = CN[C@@H](CC1CCCC1)C(=O)O; NMePhe(2-F) = CN[C@@H](Cc1ccccc1F)C(=O)O; NMeGly(cPent) = CN[C@H](C(=O)O)C1CCCC1; Phe(3-I) = N[C@@H](Cc1cccc(I)c1)C(=O)O; dαMeGly(allyl) = C=CC[C@@](C)(N)C(=O)O; NMe3Pal = CN[C@@H](Cc1cccnc1)C(=O)O; Gly(cPent) = N[C@H](C(=O)O)C1CCCC1; NMeCha = CN[C@@H](CC1CCCCC1)C(=O)O; Pro(4-oxo) = O=C1CN[C@H](C(=O)O)C1; NMeChg = CN[C@H](C(=O)O)C1CCCCC1; NMeD = CN[C@@H](CC(=O)O)C(=O)O; NMeL = CN[C@@H](CC(C)C)C(=O)O; NEtAla = CCN[C@@H](C)C(=O)O; NMeV = CN[C@H](C(=O)O)C(C)C; NMeS = CN[C@@H](CO)C(=O)O; NMeA = CN[C@@H](C)C(=O)O; Nle = CCCC[C@H](N)C(=O)O; Piperidide = C1CCN(*)CC1; Ac5c = NC1(C(=O)O)CCCC1; Aze = O=C(O)[C@@H]1CCN1; Sar = CNCC(=O)O
Legend:
[1] = molecular target: T1, Kras and SOS1 (biotin-tagged human Kras loaded with GDP, His-tagged human SOS1) (Homo sapiens, UniProt P01116, G12D); assay: Protein-protein interaction inhibition between Kras and SOS1 (KrasGl2D-SOS PPI) using AlphaScreen; format: binding; settings: AlphaScreen; biotin-tagged human Kras loaded with GDP, His-tagged human SOS1; read-out: KRAS G12D-SOS PPI IC50
T1 construct: made in house; host or cells: E. coli (stated for Kras only)
T1 sequence (P01116 1-188 isoform P01116-2 G12D): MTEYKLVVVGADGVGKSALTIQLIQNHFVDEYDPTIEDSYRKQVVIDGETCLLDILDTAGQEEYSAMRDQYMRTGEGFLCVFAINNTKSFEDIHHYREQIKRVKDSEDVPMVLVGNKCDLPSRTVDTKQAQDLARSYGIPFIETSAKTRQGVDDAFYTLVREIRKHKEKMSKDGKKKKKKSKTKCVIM
In short: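 Read-out is acceptor-bead light at 520-620 nm, arising when 680 nm-irradiated nickel donor beads pass singlet oxygen to streptavidin acceptors. The bead pair links His-tagged SOS1 with biotin-tagged, GDP-bound Kras from E. coli.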

[2] = tested on: Human pancreatic cancer cell line AsPC-1; assay: Measurement of AsPC-1 cell growth inhibition (AsPC-1 CGI); format: cell-based; settings: 96 h
In short: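 AsPC-1 cells in 15% FBS RPMI-1640 were exposed to test compound for 96 hours at 37° C, with CellTiter-Glo as endpoint.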

Structure (SMILES)	pIC50 [1]	pIC50 [2]
CC[C@H](C)[C@@H]1NC(=O)[C@H](CC(C)C)N(C)C(=O)C[C@@H](C(=O)N2CCCCC2)N(C)C(=O)[C@H](C2CCCCC2)N(C)C(=O)C2(CCCC2)NC(=O)[C@@H]2CC(=O)CN2C(=O)[C@H](CCc2ccc(C(F)(F)F)c(Cl)c2)NC(=O)CN(C)C(=O)[C@H](CC2CCCCC2)N(C)C(=O)CN(C)C(=O)CN(C)C1=O [Compound 1022] ([NMeL]I[Sar][Sar][NMeCha][Sar][hPhe(3-Cl-4-CF3)][Pro(4-oxo)][Ac5c][NMeChg][NMeD]-Piperidide; lactam N-11)	9.38	6.30 to 7.00
CCCC[C@@H]1NC(=O)[C@H](Cc2cccc(I)c2)NC(=O)CN(C)C(=O)[C@H](Cc2ccc(Cl)cc2)N(C)C(=O)CN(C)C(=O)CN(C)C(=O)[C@H]([C@@H](C)CC)NC(=O)[C@H](CC(C)C)N(C)C(=O)C[C@@H](C(=O)N2CCCCC2)N(C)C(=O)[C@H](CC(C)C)NC(=O)[C@H](Cc2ccccc2F)N(C)C1=O [Compound 1035] ([NMeL]I[Sar][Sar][NMePhe(4-Cl)][Sar][Phe(3-I)][Nle][NMePhe(2-F)]L[NMeD]-Piperidide; lactam N-11)	7.96	6.30 to 7.00
CC[C@H](C)[C@@H]1NC(=O)[C@H](COC)N(C)C(=O)C[C@@H](C(=O)N2CCCCC2)N(C)C(=O)[C@H](C2CCCCC2)N(C)C(=O)C2(CCCC2)NC(=O)[C@@H]2CCCN2C(=O)[C@H](CCc2ccc(C(F)(F)F)c(Cl)c2)NC(=O)CN(C)C(=O)[C@H](CC2CCCCC2)N(C)C(=O)CN(C)C(=O)CN(C)C1=O [Compound 1037] ([NMeS](Me)I[Sar][Sar][NMeCha][Sar][hPhe(3-Cl-4-CF3)]P[Ac5c][NMeChg][NMeD]-Piperidide; lactam N-11)	9.18	7.00 to 7.30
C=CC[C@@]1(C)NC(=O)[C@@H]2CCCN2C(=O)[C@H](CCc2ccc(C(F)(F)F)c(Cl)c2)NC(=O)CN(C)C(=O)[C@H](CC2CCCCC2)N(C)C(=O)CN(C)C(=O)CN(C)C(=O)[C@H]([C@@H](C)CC)NC(=O)[C@H](CC(C)C)N(C)C(=O)C[C@@H](C)N(C)C(=O)[C@H](C(C)C)N(C)C1=O [Compound 1038] (cyclo(I[Sar][Sar][NMeCha][Sar][hPhe(3-Cl-4-CF3)]P[dαMeGly(allyl)][NMeV][NMedβ3hAla][NMeL]))	7.74	6.30 to 7.00
CC[C@H](C)[C@@H]1NC(=O)[C@H](C)N(CC)C(=O)C[C@@H](C(=O)N2CCCCC2)N(C)C(=O)[C@H](C(C)C)N(C)C(=O)C2(CCCC2)NC(=O)[C@@H]2CCCN2C(=O)[C@H](CCc2ccc(C(F)(F)F)c(Cl)c2)NC(=O)CN(C)C(=O)[C@H](CC2CCCCC2)N(C)C(=O)CN(C)C(=O)CN(C)C1=O [Compound 1051] ([NEtAla]I[Sar][Sar][NMeCha][Sar][hPhe(3-Cl-4-CF3)]P[Ac5c][NMeV][NMeD]-Piperidide; lactam N-11)	8.54	6.30 to 7.00
CC[C@H](C)[C@@H]1NC(=O)[C@H](C)N(C)C(=O)C[C@@H](C(=O)N2CCCCC2)N(C)C(=O)[C@H](C2CCCCC2)N(C)C(=O)C2(CCCC2)NC(=O)[C@@H]2CCCN2C(=O)[C@H](CCc2ccc(C)cc2)NC(=O)CN(C)C(=O)[C@H](CC2CCCCC2)N(C)C(=O)CN(C)C(=O)CN(C)C1=O [Compound 1055] ([NMeA]I[Sar][Sar][NMeCha][Sar][X33]P[Ac5c][NMeChg][NMeD]-Piperidide; lactam N-11)	8.66	6.30 to 7.00
CC[C@H](C)[C@@H]1NC(=O)[C@H](CC(F)(F)F)N(C)C(=O)C[C@@H](C(=O)N2C3CCC2COC3)N(C)C(=O)[C@H](C2CCCCC2)N(C)C(=O)C2(CCCC2)NC(=O)[C@@H]2CCCN2C(=O)[C@H](CCc2ccc(C(F)(F)F)c(Cl)c2)NC(=O)CN(C)C(=O)[C@H](CC2CCCC2)N(C)C(=O)CN(C)C(=O)CN(C)C1=O [Compound 1057] ([NMeAbu(4,4,4-F3)]I[Sar][Sar][NMeAla(cPent)][Sar][hPhe(3-Cl-4-CF3)]P[Ac5c][NMeChg][NMeD]-{3Oxa8azabicyclo(3.2.1)octane}; lactam N-11)	8.92	6.30 to 7.00
CC(C)C[C@H]1C(=O)N[C@@H](C2CCCC2)C(=O)N(C)CC(=O)N(C)CC(=O)N(C)[C@@H](CC2CCCCC2)C(=O)N(C)CC(=O)N[C@@H](CCc2ccc(C(F)(F)F)c(Cl)c2)C(=O)N2CCC[C@H]2C(=O)NC2(CCCC2)C(=O)N(C)[C@@H](C(C)C)C(=O)N(C)[C@H](C(=O)N2CCCCC2)CC(=O)N1C [Compound 1064] ([NMeL][Gly(cPent)][Sar][Sar][NMeCha][Sar][hPhe(3-Cl-4-CF3)]P[Ac5c][NMeV][NMeD]-Piperidide; lactam N-11)	8.37	6.30 to 7.00
CC[C@H](C)[C@@H]1NC(=O)[C@H](CC(C)C)N(C)C(=O)C[C@@H](C(=O)N(C)C)N(C)C(=O)[C@H](C2CCCC2)N(C)C(=O)C2(CCCC2)NC(=O)[C@H](Cc2cccnc2)N(C)C(=O)[C@H](CCc2ccc(C(F)(F)F)c(Cl)c2)NC(=O)CN(C)C(=O)[C@H](CC2CCCCC2)N(C)C(=O)[C@@H]2CCN2C(=O)[C@H](C)N(C)C1=O [Compound 1071] ([NMeL]I[NMeA][Aze][NMeCha][Sar][hPhe(3-Cl-4-CF3)][NMe3Pal][Ac5c][NMeGly(cPent)][NMeD]-NMe2; lactam N-11)	8.89	6.30 to 7.00

Source: patent US12371454B2, “Cyclic peptide compound having Kras inhibitory action” (priority 2019, dated 2025)
